Converted amounts (≈) assume the structure as drawn. “And” between values parts separate entries of the source, which are not always exact repeats. Identical values can stand only once.
Legend:
[1] = biological target: PAN endonuclease (N-terminal domain of the PA subunit) (Influenza A virus, UniProt P03433); format: biochemical
[2] = tested on: influenza H1N1 virus; assay: microbe, parasite or virus in culture; format: cell-based, influenza A virus; conditions: for IC50: Influenza A virus, H1N1, MDCK
[3] = MTT cytotoxicity assay; format: cell-based, canine; conditions: dog, MDCK cells
Protocol: Selectivity index (SI) of each compound was defined as the ratio of CC50 over IC50. CC50 value was determined with MTT assay according to the manufacturer’s protocol (Invitrogen), while IC50 data was obtained by plaque reduction assay. Both assays were done in MDCK cells and values were calculated using Sigma plot 12.0 (SPSS).

[4] = tested on: influenza H1N1 virus; format: cell-based, influenza A virus
[5] = tested on: H1N1 virus; assay: microbe, parasite or virus in culture; format: cell-based; conditions: Influenza A virus, H1N1, MDCK, 24 h
[6] = tested on: H3N2 virus; format: cell-based, influenza A virus; conditions: MDCK, MOI 0.002, 24 h post-infection
[7] = tested on: H5N1 virus; assay: microbe, parasite or virus in culture; format: cell-based; conditions: Influenza A virus, H5N1, MDCK, 24 h
[8] = tested on: H7N7 virus; assay: microbe, parasite or virus in culture; format: cell-based; conditions: Influenza A virus, H7N7, MDCK, 24 h
[9] = tested on: H7N9 virus; format: cell-based, influenza A virus; conditions: MDCK, MOI 0.002, 24 h post-infection
[10] = tested on: H9N2 virus; assay: microbe, parasite or virus in culture; format: cell-based; conditions: Influenza A virus, H9N2, MDCK, 24 h
[11] = tested on: multiple subtypes of influenza virus, including H1N1, H3N2, H5N1, H7N7, H7N9, and H9N2; format: cell-based, influenza A virus; conditions: all tested subtypes; for inhibition of viral replication: serial-diluted compound
[12] = tested on: influenza H1N1 virus; format: cell-based, influenza A virus; remark: listed apart in the source
[13] = biological target: influenza polymerase activity (PB1, PB2, PA, NP) (Influenza A virus, UniProt P03433); format: cell-based
[14] = biological target: PAN protein (Influenza A virus, UniProt P03433); assay: biochemical; format: binding
[15] = Solubility in PBS; format: physicochemical; conditions: read-out: solubility limitation

SMILES: O=C1N=c2ccccc2=C1NNC1=NC(=O)/C(=C2/C(=O)Nc3ccccc32)S1 [ANA-0, (5Z)-2-[2-(2-oxoindol-3-yl)hydrazinyl]-5-(2-oxo-1H-indol-3-ylidene)-1,3-thiazol-4-one]
- IC50 compared with that of DPBA [1]: lower IC50s
- Selectivity Index (CC50/IC50) [2]: > 500
- IC50 [2]: 800 ± 100 nM
- CC50 [3]: > 400000 nM
- reduction in supernatant viral titer [4]: 2–3 log
- IC50 [5]: < 1000 nM
- concentration required for similar inhibition relative to H1N1 and H9N2 [6]: 5 fold and > 5 fold
- IC50 [7]: ~2500 nM
- IC50 [8]: ~2500 nM
- concentration required for similar inhibition relative to H1N1 and H9N2 [9]: 5 fold and > 5 fold
- IC50 [10]: < 1000 nM
- suppression of virus replication ([11]; 20 μM): more than 3 logs
- inhibition of viral replication [11]: inhibited viral replication of all tested subtypes of influenza virus in a dose-dependent manner
- antiviral efficacy when added during virus absorption (-1 h) and then removed [12]: did not exert antiviral efficacy
- intracellular and supernatant vRNA when added at 1 h p.i. and maintained [12]: significant decrease of viral RNAs
- intracellular viral mRNA production [12]: reduced the viral mRNA production
- vRNAs in cell lysates [12]: subsequent decrease of vRNAs in cell lysates
- luciferase activity (viral polymerase function) [13]: dose-dependent suppression of luciferase activity
- Kd [14]: 1100 nM
- solubility [15]: 1000 µg/mL (≈ 2570 µM)

SMILES: O=C([O-])Cc1c[nH]c2ccc(O)cc12.[K+] [Compound 5106705]
- PAN Endonuclease Inhibition Postive [1]: Y

SMILES: O=C1C=CC(=NS(=O)(=O)c2ccc(Cl)cc2)C=C1Cl [Compound 5158517]
- PAN Endonuclease Inhibition Postive [1]: Y

SMILES: O=C1C=CC(=O)C(C(=CNCc2ccccc2)[N+](=O)[O-])=C1 [Compound 5261378]
- PAN Endonuclease Inhibition Postive [1]: Y

SMILES: Nc1c(C(=O)O)cc(O)c2c1C(=O)c1ccccc1C2=O [Compound 5302115]
- PAN Endonuclease Inhibition Postive [1]: Y
- Anti-H1N1 Positive [2]: Y

SMILES: CN(C)c1ccc(C=C2SC(=NN=C3C(=O)Nc4ccccc43)NC2=O)cc1 [Compound 5404571]
- PAN Endonuclease Inhibition Postive [1]: Y
- Anti-H1N1 Positive [2]: Y

SMILES: Oc1c(Br)cc(C=NNc2nc3ccccc3s2)c(O)c1Br [Compound 5482349]
- PAN Endonuclease Inhibition Postive [1]: Y
- Anti-H1N1 Positive [2]: Y

SMILES: C=CCN1C(=O)C(=Cc2cccn2-c2cccc([N+](=O)[O-])c2)C(=O)NC1=S [Compound 5987504]
- PAN Endonuclease Inhibition Postive [1]: Y
- Anti-H1N1 Positive [2]: Y

SMILES: O=C1C(=O)c2ccccc2C(Cl)=C1Cl [Compound 6304348]
- PAN Endonuclease Inhibition Postive [1]: Y

SMILES: Nc1c(C(=O)O)cc(O)c2c1C(=O)c1ccccc1C2=O [PA-24]
- Selectivity Index (CC50/IC50) [2]: 129
- plaque number reduction [2]: reduce the plaque number in a dose-dependent manner
- IC50 [2]: 1400 ± 300 nM
- CC50 [3]: 180000 ± 15000 nM

SMILES: CN(C)c1ccc(/C=C2\S/C(=N\N=C3\C(=O)Nc4ccccc43)NC2=O)cc1 [PA-30]
- IC50 compared with that of DPBA [1]: lower IC50s
- Selectivity Index (CC50/IC50) [2]: > 200
- plaque number reduction [2]: reduce the plaque number in a dose-dependent manner
- IC50 [2]: 1500 ± 200 nM
- CC50 [3]: > 300000 nM
- reduction in supernatant viral titer [4]: 2–3 log
- inhibition of viral replication [11]: inhibited viral replication of all tested subtypes of influenza virus in a dose-dependent manner
- Kd [14]: 1300 nM

SMILES: Oc1c(Br)cc(/C=N/Nc2nc3ccccc3s2)c(O)c1Br [PA-35]
- Selectivity Index (CC50/IC50) [2]: 58
- plaque number reduction [2]: reduce the plaque number in a dose-dependent manner
- IC50 [2]: 1300 ± 500 nM
- CC50 [3]: 75000 ± 23000 nM

SMILES: C=CCN1C(=O)/C(=C\c2cccn2-c2ccc([N+](=O)[O-])cc2)C(=O)NC1=S [PA-48]
- Selectivity Index (CC50/IC50) [2]: 10
- plaque number reduction [2]: reduce the plaque number in a dose-dependent manner
- IC50 [2]: 2000 ± 100 nM
- CC50 [3]: 20000 ± 5000 nM

SMILES: CC(=O)N[C@H]1[C@H]([C@H](O)[C@H](O)CO)OC(C(=O)O)=C[C@@H]1N=C(N)N [zanamivir, reference compound]
- intracellular and supernatant vRNA when added at 1 h p.i. and maintained [12]: reduced the vRNA in the supernatant but not inside the cells

Reference: paper PMC4783701 (Scientific Reports, 2016)
